{
  "source": "paper PMC10890321",
  "about": "“Identification of Mortalin as the Main Interactor of Mycalin A, a Poly-Brominated C-15 Acetogenin Sponge Metabolite, by MS-Based Proteomics” (Marine Drugs, 2024)",
  "molecular_target": "T1, mortalin (GRP75, mitochondrial Stress-70 protein) (Homo sapiens, UniProt P38646)",
  "T1 construct": "gene HSPA9",
  "T1 sequence (P38646 47-679)": "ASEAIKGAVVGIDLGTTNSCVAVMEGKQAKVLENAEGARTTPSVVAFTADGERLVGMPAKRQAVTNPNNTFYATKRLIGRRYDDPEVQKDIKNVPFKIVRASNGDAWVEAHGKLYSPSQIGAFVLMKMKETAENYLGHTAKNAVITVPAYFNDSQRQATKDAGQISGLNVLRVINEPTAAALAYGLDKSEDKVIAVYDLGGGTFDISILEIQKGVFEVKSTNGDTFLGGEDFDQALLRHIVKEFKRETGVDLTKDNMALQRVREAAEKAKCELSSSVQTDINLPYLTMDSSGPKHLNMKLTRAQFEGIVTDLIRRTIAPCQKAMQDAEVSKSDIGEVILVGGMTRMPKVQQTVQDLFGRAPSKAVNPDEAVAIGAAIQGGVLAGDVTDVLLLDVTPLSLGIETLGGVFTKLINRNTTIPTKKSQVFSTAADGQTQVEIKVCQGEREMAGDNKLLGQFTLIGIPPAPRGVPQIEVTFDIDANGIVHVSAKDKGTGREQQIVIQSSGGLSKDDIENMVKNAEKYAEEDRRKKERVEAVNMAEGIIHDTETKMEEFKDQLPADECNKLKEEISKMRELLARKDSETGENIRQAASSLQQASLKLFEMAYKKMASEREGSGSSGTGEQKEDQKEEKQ",
  "T1 sequence (P04637 whole entry partner)": "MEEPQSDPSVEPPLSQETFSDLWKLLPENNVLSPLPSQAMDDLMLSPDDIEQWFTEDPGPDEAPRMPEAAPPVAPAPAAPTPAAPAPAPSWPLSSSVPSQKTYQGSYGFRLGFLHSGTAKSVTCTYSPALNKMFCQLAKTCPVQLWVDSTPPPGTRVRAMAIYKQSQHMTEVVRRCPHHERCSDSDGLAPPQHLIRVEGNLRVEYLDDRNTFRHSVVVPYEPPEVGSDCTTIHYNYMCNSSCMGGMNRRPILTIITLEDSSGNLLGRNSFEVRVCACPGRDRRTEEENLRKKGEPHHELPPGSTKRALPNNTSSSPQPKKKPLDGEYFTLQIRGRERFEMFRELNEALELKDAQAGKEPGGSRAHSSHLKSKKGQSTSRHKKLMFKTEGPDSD",
  "test": "SPR competition (mortalin pre-incubated with MKT-077, injected over immobilized p53)",
  "format": "binding",
  "data": [
    {"molecule": "CCn1c(=O)/c(=C2\\Sc3ccccc3N2C)s/c1=C\\c1cccc[n+]1CC", "note": "[MKT-077]", "values": [
      {"measurement": "SPR competition (mortalin pre-incubated with MKT-077, injected over immobilized)", "value": 843.4, "unit": "nM"}
    ]}
  ]
}
